Assay results: article PMC2937029 (PLoS ONE, 2010)
Where two headings read alike, the source gives them in different places.

Tests used:
HprK/P = target: T1, HprK/P (Brucella melitensis, UniProt Q8YE44)
T1 construct: gene BMEI2034

EI^Ntr = target: T2, EI^Ntr (Brucella melitensis, UniProt Q8YJ96); conditions: labelled compound; 10 µM [32P]PEP, NPr as acceptor, 5 mM MgCl2, pH 7.4, 37°C; covalent phosphoryl transfer
T2 construct: gene BMEI0190
T2 sequence (Q8YJ96 1-756): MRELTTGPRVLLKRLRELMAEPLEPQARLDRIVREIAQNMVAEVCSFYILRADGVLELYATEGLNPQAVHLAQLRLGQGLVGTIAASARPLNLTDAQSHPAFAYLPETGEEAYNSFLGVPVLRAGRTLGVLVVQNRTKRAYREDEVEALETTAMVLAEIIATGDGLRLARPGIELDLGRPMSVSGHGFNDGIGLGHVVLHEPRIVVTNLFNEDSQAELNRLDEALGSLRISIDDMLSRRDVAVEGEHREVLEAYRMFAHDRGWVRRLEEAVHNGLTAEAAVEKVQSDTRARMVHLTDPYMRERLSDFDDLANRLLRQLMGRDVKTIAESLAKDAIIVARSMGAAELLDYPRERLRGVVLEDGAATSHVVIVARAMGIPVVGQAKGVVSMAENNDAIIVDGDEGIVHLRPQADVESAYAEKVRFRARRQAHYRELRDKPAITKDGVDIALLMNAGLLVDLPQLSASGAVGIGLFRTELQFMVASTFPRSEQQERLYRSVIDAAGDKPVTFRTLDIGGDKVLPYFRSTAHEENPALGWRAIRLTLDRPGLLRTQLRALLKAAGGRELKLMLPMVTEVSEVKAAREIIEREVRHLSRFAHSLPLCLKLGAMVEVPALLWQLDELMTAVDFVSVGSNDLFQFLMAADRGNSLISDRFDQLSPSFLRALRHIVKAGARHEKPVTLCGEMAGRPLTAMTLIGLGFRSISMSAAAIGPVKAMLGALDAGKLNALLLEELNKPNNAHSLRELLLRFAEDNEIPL

T1 sequence (Q8YE44 1-159): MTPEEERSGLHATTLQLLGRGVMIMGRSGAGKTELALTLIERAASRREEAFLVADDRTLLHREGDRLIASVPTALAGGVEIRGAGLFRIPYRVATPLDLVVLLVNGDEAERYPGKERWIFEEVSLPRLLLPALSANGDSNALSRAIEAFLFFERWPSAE

Compound | 32P NPr kinase assay, SDS-PAGE, phosphorimaging (HprK/P) | further results
Nc1ncnc2c1ncn2[C@@H]1O[C@H](COP(=O)(O)OP(=O)(O)OP(=O)(O)O)[C@@H](O)[C@H]1O [ATP] |  | 32P NPr kinase assay, SDS-PAGE, phosphorimaging (HprK/P; labelled compound, 25 µM [γ-32P]ATP, NPr as acceptor, no FBP or KPi, 5 mM MgCl2, pH 7.4, 37°C): HprK/P phosphorylated wild type NPr and NPrH30A in an ATP-dependent way
C=C(OP(=O)(O)O)C(=O)O [PEP] |  | 32P phosphotransfer to NPr, SDS-PAGE, phosphorimaging (EI^Ntr): the additional presence of EI allowed the phosphorylation of wild-type NPr
O=P(O)(O)OP(=O)(O)O [PPi] | With both phosphoryl group donors, HprK/P was active as a kinase | 
O=P(O)(O)O [Pi] | inhibition of both the ATP- and PPi-dependent kinase activities of B. melitensis HprK/P | 
